Results as given in patent US6169076A, “P-Boronophenylalanine complexes with fructose and related carbohydrates and polyols” (Glcosyn Pharmaceuticals, Inc., priority 1999, dated 2001).
In brackets after ≈: the same amount, converted by molar mass. Where a name gives a salt, the structure may show the parent alone. Each block holds one compound with its values, some of them ahead of it.

Key:
[1] = Complex formation constants of p-BPA with carbohydrates and polyols, by integration of aryl protons in the 1H NMR spectrum (D2O, pH buffered at 7.4); type: physicochemical; conditions: for log Keq (complex formation constant, disaccharides) / log Keq (complex formation constant, monosaccharides) / log Keq (complex formation constant, polyols): L-p-BPA, 1H NMR, D2O, pH buffered at 7.4; for difference in binding constants: maltulose, lactulose and fructose compared; for decrease in binding: C-3 hydroxyl unavailable; for decrease in the pKeq values of these complexes: C-6 hydroxyl eliminated from binding, relative to fructose; for binding with l-p-BPA / change in the 1H NMR spectrum of l-p-BPA: in words
From the text: (§1) The ratio of free p-BPA to p-BPA:carbohydrate complex can be determined by integration of the aromatic protons resonances (p-BPA, 7.73 and 7.33 ppm; p-BPA-carbohydrate complex, 7.5 and 7.2 ppm) in the ^1 H NMR spectrum using D2 O buffered to physiological pH as the solvent. A minimum of five measurements for each carbohydrate at various concentrations and p-BPA:carbohydrate ratios were taken, and the equilibrium constant calculated (Table 1 and Table 2). Likewise, complex formation constants for p-BPA and some polyols have been calculated (Table 3).
^a All values were determined for L-p-BPA by integration of aryl
protons in the ^j H NMR spectrum (D2 O, pH buffered at 7.4).
^a All values were determined for L-p-BPA by intergration of aryl
protons in the ^l H NMR spectrum (D2 O, pH buffered at 7.4).
The strong correspondence between the NMR data obtained for the l-p-BPA-fructose complex at physiological pH and one of the complexes (e.g., as observed for p-tolylboronic acid with fructose at pD 11-12) was further investigated by a systematic study of the binding ability of fructose-containing disaccharides (Table 2). […] However, the presence of the added 4-O-glucosyl or galactosyl group had no positive effect on binding either.
While the hydroxyl at C-3 for turanose is eliminated from binding due to the presence of the glucosyl moiety, the C-3 hydroxyl of leucrose is also unavailable for binding due to a likely significant contribution from the conformation that places the glucosyl unit in an equatorial position, resulting in a diaxial orientation between the anomeric C-2 hydroxyl and C-3 hydroxyl axial. Loss in binding ability for leucrose can also be attributed to the fructose unit being locked in the less favored pyranose ring form.

[2] = 0.1 M solution; cited from earlier work
[3] = patients injected with p-BPA solution of this acidity; cited from earlier work
[4] = State of p-BPA in solution at pH 7.4 with strongly complexing or excess carbohydrate/polyol; type: physicochemical
From the text: as §1

[5] = cited from earlier work
[6] = test system: melanoma cells; conditions: in words; cited from earlier work
[7] = intravenous; solution from current methods; cited from earlier work
[8] = test system: murine melanoma model; conditions: systemic administration; cited from earlier work
[9] = solution from current methods, roughly one equivalent of NaCl; cited from earlier work
[10] = Hydration of the freeze-dried solid with warm water and standing at room temperature; type: physicochemical
Protocol: ^10 B enriched l-p-boronophenylalanine (0.520 g) and d-fructose (0.473 g) was suspended in distilled water (3 mL), and l-p-boronophenylalanine was dissolved by addition of 0.5 M NaOH (5.3 mL) with gentle heating. The pH of this solution is typically between 8.5 and 9.0. […] The solution is removed from the resin, and any l-p-boronophenylalanine that is suspended can be redissolved with gentle warming of the solution. The room temperature solution was then filtered through a 0.2μ filter and then freeze-dried to give sodium l-p-boronophenylalanine-d-fructose complex (0.934 g). […] M.p. 90-93° C.

Compound: OC[C@H]1O[C@@H](O[C@@H]2[C@@H](CO)OC(O)(CO)[C@H]2O)[C@H](O)[C@@H](O)[C@H]1O (mixture of isomers) [Lactulose]
- log Keq (complex formation constant, disaccharides) [1]: 3.0
- difference in binding constants [1]: lack of appreciable difference in binding constants

Compound: O=CC[C@@H](O)[C@H](O)[C@H](O)CO [2-Deoxyglucose]
- log Keq (complex formation constant, monosaccharides) [1]: < 0

Compound: OC[C@@H](O)[C@@H](O)[C@@H](O)CO [Adonitol]
- log Keq (complex formation constant, polyols) [1]: 1.7

Compound: O=C(CO)[C@@H](O)[C@H](O)[C@H](O)CO [Fructose]
- log Keq (complex formation constant, monosaccharides) [1]: 3.2
- difference in binding constants [1]: lack of appreciable difference in binding constants

Compound: O=C[C@H](O)[C@@H](O)[C@@H](O)[C@H](O)CO [Galactose]
- log Keq (complex formation constant, monosaccharides) [1]: 1.6

Compound: O=C[C@H](O)[C@@H](O)[C@H](O)[C@H](O)CO [Glucose]
- log Keq (complex formation constant, monosaccharides) [1]: 1.4

Compound: OC[C@H]1O[C@H](O[C@@H]2COC(O)(CO)[C@@H](O)[C@@H]2O)[C@H](O)[C@@H](O)[C@@H]1O (some centres unmarked) [Leucrose]
- decrease in binding [1]: 1.5 pKeq
- log Keq (complex formation constant, disaccharides) [1]: 1.7

Compound: OC[C@@H](O)[C@@H](O)[C@H](O)[C@H](O)CO [Mannitol]
- log Keq (complex formation constant, polyols) [1]: 2.7

Compound: O=C[C@@H](O)[C@@H](O)[C@H](O)[C@H](O)CO [Mannose]
- log Keq (complex formation constant, monosaccharides) [1]: 1.3

Compound: OC[C@H]1O[C@H](OC[C@H]2OC(O)(CO)[C@@H](O)[C@@H]2O)[C@H](O)[C@@H](O)[C@@H]1O (some centres unmarked) [Palatinose]
- decrease in the pKeq values of these complexes [1]: 0.5 pKeq
- log Keq (complex formation constant, disaccharides) [1]: 2.6

Compound: O=C[C@H](O)[C@H](O)[C@H](O)CO [Ribose]
- log Keq (complex formation constant, monosaccharides) [1]: 1.8

Compound: OC[C@@H](O)[C@@H](O)[C@H](O)[C@@H](O)CO [Sorbitol]
- log Keq (complex formation constant, polyols) [1]: 3.2

Compound: NC(Cc1ccc(B(O)O)cc1)C(=O)O (centres unmarked) [hydrochloric acid salts of p-BPA]
- pH value of solution [2]: approximately 1.5
- pain on injection [3]: causes pain

Compound: [NH3+]C(Cc1ccc([B-]23OC[C@H]4O[C@@](CO)(O2)[C@@H](O3)[C@@H]4O)cc1)C(=O)O (some centres unmarked) [p-BPA-fructose complex]
- toxicity [7]: toxicity observed
- 10B uptake [8]: increases the ^10 B uptake
- osmotic property of solution [9]: greatly exceeding its iso-osmotic point with blood

Compound: Maltulose
- log Keq (complex formation constant, disaccharides) [1]: 3.1
- difference in binding constants [1]: lack of appreciable difference in binding constants

Now from value to compound, other results behind:

- decrease in the pKeq values of these complexes [1]: 0.5 pKeq
- log Keq (complex formation constant, monosaccharides) [1]: 2.7
Compound: O=C(CO)[C@H](O)[C@@H](O)[C@H](O)CO [Sorbose]

- decrease in binding [1]: 1.5 pKeq
- log Keq (complex formation constant, disaccharides) [1]: 1.6
Compound: O=C(CO)[C@@H](O[C@H]1O[C@H](CO)[C@@H](O)[C@H](O)[C@H]1O)[C@H](O)[C@H](O)CO [Turanose]

- log Keq (complex formation constant, polyols) [1]: 2.5
Compound: OC[C@@H](O)[C@H](O)[C@@H](O)CO [Xylitol]

- binding with l-p-BPA [1]: complete lack of binding
- change in the 1H NMR spectrum of l-p-BPA [1]: no change
Compound: CO[C@H]1O[C@H](CO)[C@@H](O)[C@H](O)[C@H]1O [methyl-α-glucopyranoside]

- binding with l-p-BPA [1]: complete lack of binding
- change in the 1H NMR spectrum of l-p-BPA [1]: no change
Compound: CO[C@@H]1O[C@H](CO)[C@H](O)[C@H](O)[C@H]1O [methyl-β-galactopyranoside]

- p-BPA remaining in solution ([4]; fructose, sorbose, or large excess of another carbohydrate or polyol): all of the p-BPA remains in solution
- p-BPA present as its sodium carboxylate ([4]; remainder as free acid): approximately 90%
Compound: N[C@@H](Cc1ccc(B(O)O)cc1)C(=O)O [p-BPA, p-Boronophenylalanine]
- water solubility at physiological pH ([5]; pH 7.4, in words): poor water solubility
- solubility in water ([5]; water): 1.6 mg/mL (≈ 7.66 mM)
- uptake by melanoma cells [6]: selectively taken up by melanoma cells

- stability of the hydrated solution (remains dissolved) ([10]; prolonged standing (i.e., 48 hrs) at room temperature): remains completely dissolved
- solubility ([10]; warm water, 60° C.): ~100 mg/mL
Compound: [NH3+][C@@H](Cc1ccc([B-]23OC[C@H]4O[C@@](CO)(O2)[C@@H](O3)[C@@H]4O)cc1)C(=O)O [sodium l-p-boronophenylalanine-d-fructose complex]

- binding with l-p-BPA [1]: complete lack of binding
- change in the 1H NMR spectrum of l-p-BPA [1]: no change
Compound: OC[C@H]1O[C@@](CO)(O[C@H]2O[C@H](CO)[C@@H](O)[C@H](O)[C@H]2O)[C@@H](O)[C@@H]1O [sucrose]
